Data published in paper PMC7222207, “Characterization of a CholesteroNitrone (ISQ-201), a Novel Drug Candidate for the Treatment of Ischemic Stroke” (Antioxidants, 2020).
Like-named read-outs stand apart in the source and are kept apart here.

How the values were obtained:
[1] = test system: transient forebrain ischemia, cortex and hippocampal CA1; experiment: Global cerebral ischemia (4VO), dose-response curve of neuroprotection; format: in vivo, male Wistar rats; conditions: for EC50 of neuroprotection from dose-response curve: 5 days of reperfusion
Protocol: Transient forebrain ischemia was induced in adult male Wistar rats (10–12 weeks, Charles River) by the standard four-vessel occlusion model (4VO) described previously. Briefly, both vertebral arteries were irreversibly occluded by electrocoagulation under anesthesia, with a mixture of atropine, ketamine, and diazepam (0.25, 62.5, and 5 mg/kg, respectively) delivered through intraperitoneal injection. After 24 h, ischemia was induced by carotid occlusion with atraumatic clips, for 15 min, and then the clips were removed from the carotid arteries to allow reperfusion. Body temperature was maintained at 37 °C during the surgical procedure. The animals were studied after 5 days of reperfusion (R5d) after which they were sacrificed. Sham control animals were prepared in the same way, without carotid occlusion. We performed a power analysis (http://www.biomath.info/power/ttest.htm) to determine the sample size. Significance level and statistical power were set at 0.05 and 0.8 (80%), respectively, which afforded a sample size of […] subjects per group. The treatments were administered with concealed allocation, and in randomized order, according to a computer-generated randomization program. […]
Figure 2 Dose-response curve of ISQ-201. Ischemic animals were treated with a vehicle or ISQ-201 (range 0.01–0.1 mg/kg) by an intravenous injection, at the onset of reperfusion after global cerebral ischemia, and ISQ-201 effect was evaluated by assessing the neuronal death at 5 days of reperfusion (R5d). […] Fluoro-Jade-positive dead neurons were visualized by fluorescence microscopy (in green) in the hippocampal CA1 (CA1) and cortical (C) regions (images), and counted, as described in Materials and Methods (bar graph). (b) Brain sections as in (a) were used for apoptosis detection by TUNEL assay after fixation, and were visualized by fluorescence microscopy (in green) in the CA1 and C regions (images). TUNEL-positive cells were counted in the CA1 and C regions, as described in the Materials and Methods (bar graph). […]

[2] = Pharmacokinetics study, plasma concentration after intravenous bolus (LC-MS/MS); format: in vivo, male Wistar rats; conditions: rat; for clearance / Vd / k el / half-life / Cmax / AUC(0-t) / C0: male, Wistar; for clearance / Vd / k el / half-life / Cmax / AUC(0-t) / C0 / Clast: plasma; for clearance / Vd / k el / Cmax / AUC(0-t) / C0 / Clast: mean ± SE n=6; for clearance: read-out: Cl (terminal clearance) (converted); for Vd: read-out: Vd (volume of distribution); for k el: read-out: kel (terminal elimination constant) (converted); for half-life: iv; for AUC(0-t): read-out: AUC0–8h; for C0: read-out: C0 (initial concentration)
Protocol: For the study of the variation of the concentration of ISQ-201 in plasma, male Wistar rats (10–12 weeks, Charles River) were randomly divided into three groups (n = 6 per group) and treated intravenously, as a bolus with different concentrations of ISQ-201 (0.07, 0.25, and 1.0 mg/kg, respectively). Plasma samples were taken 0.25, 0.5, 1, 2, 4, and 8 h after the administration and the ISQ-201 concentration was determined by LC–MS/MS analysis. A noncompartmental analysis was performed for the determination of the toxicokinetic parameters, using the Phoenix 64 WinNonlin program (version 8.0). This study was carried out by Swiss BioQuant AG (Reinach, Switzerland).
Study of the variation of ISQ-201 concentration after a single bolus intravenous administration was carried out with different doses of ISQ-201 (0.07, 0.25, and 1.00 mg/kg). Plasma samples were collected 0.25, 0.5, 1, 2, 4, and 8 h after administration, and the ISQ-201 concentration was determined through LC/MS–MS (Figure 7). Pharmacokinetic parameters were calculated through a non-compartmental analysis (Table 2).

**Q.** For `CC(C)[C@H]1CC[C@H]2[C@@H]3CCC4=C/C(=[N+](\C)[O-])CC[C@]4(C)[C@H]3CC[C@]12C` [ISQ-201], which “EC50 of neuroprotection from dose-response curve” value ([1]; cortex, iv 0.01–0.1 mg/kg at reperfusion onset) is on record?
**A.** 0.015 mg/kg

**Q.** And the “EC50 of neuroprotection from dose-response curve” value ([1]; hippocampal CA1, iv 0.01–0.1 mg/kg at reperfusion onset)?
**A.** 0.025 mg/kg

**Q.** And the “most effective dose in decreasing neuronal death and apoptosis” value ([1]; iv, doses 0.01–0.1 mg/kg, after 5 days of reperfusion)?
**A.** 0.05 mg/kg

**Q.** And the clearance ([2]; iv bolus 0.07 mg/kg)?
**A.** 1.75 mL/min

**Q.** What about the Vd ([2]; iv bolus 0.07 mg/kg) of the same compound?
**A.** 0.364 ± 0.11 L

**Q.** And the k el ([2]; iv bolus 0.07 mg/kg)?
**A.** 8.81e-05 s⁻¹

**Q.** What about the clearance ([2]; iv bolus 0.25 mg/kg) of the same compound?
**A.** 0.923 mL/min

**Q.** And the Vd ([2]; iv bolus 0.25 mg/kg)?
**A.** 0.166 ± 0.027 L

**Q.** And the k el ([2]; iv bolus 0.25 mg/kg)?
**A.** 9.53e-05 s⁻¹

**Q.** And the clearance ([2]; iv bolus 1.00 mg/kg)?
**A.** 0.895 mL/min

**Q.** What about the Vd ([2]; iv bolus 1.00 mg/kg) of the same compound?
**A.** 0.3 ± 0.103 L

**Q.** What about the k el ([2]; iv bolus 1.00 mg/kg) of the same compound?
**A.** 7.94e-05 s⁻¹

**Q.** What about the half-life ([2]; 0.07 mg/kg, iv bolus 0.07 mg/kg, mean ± SE n=6, read-out: t1/2 (half-life) (converted)) of the same compound?
**A.** 1.66 ± 0.1 h

**Q.** What about the half-life ([2]; 0.25 mg/kg, iv bolus 0.25 mg/kg, mean ± SE n=6, read-out: t1/2 (half-life) (converted)) of the same compound?
**A.** 1.51 ± 0.12 h

**Q.** And the half-life ([2]; 1 mg/kg, iv bolus 1.00 mg/kg, mean ± SE n=6, read-out: t1/2 (half-life) (converted))?
**A.** 2.2 ± 0.53 h

**Q.** What about the half-life ([2]; iv bolus, 0.07–1.00 mg/kg, read-out: half-life) of the same compound?
**A.** 1.5 to 2 h

**Q.** And the Cmax ([2]; iv bolus 0.07 mg/kg)?
**A.** 50.6 ± 7.4 ng/mL

**Q.** What about the AUC(0-t) ([2]; iv bolus 0.07 mg/kg) of the same compound?
**A.** 81.1 ± 9.5 ng·h/mL

**Q.** And the C0 ([2]; iv bolus 0.07 mg/kg)?
**A.** 74.6 ± 12.2 ng/mL

**Q.** What about the Cmax ([2]; iv bolus 0.25 mg/kg) of the same compound?
**A.** 330 ± 51.2 ng/mL

**Q.** What about the AUC(0-t) ([2]; iv bolus 0.25 mg/kg) of the same compound?
**A.** 477 ± 42 ng·h/mL

**Q.** What about the C0 ([2]; iv bolus 0.25 mg/kg) of the same compound?
**A.** 490 ± 80.2 ng/mL

**Q.** And the Cmax ([2]; iv bolus 1.00 mg/kg)?
**A.** 1210 ± 300 ng/mL

**Q.** And the AUC(0-t) ([2]; iv bolus 1.00 mg/kg)?
**A.** 2030 ± 429 ng·h/mL

**Q.** What about the C0 ([2]; iv bolus 1.00 mg/kg) of the same compound?
**A.** 1690 ± 424 ng/mL

**Q.** What about the Clast ([2]; iv bolus 0.07 mg/kg) of the same compound?
**A.** 1.53 ± 0.09 ng/mL

**Q.** What about the Clast ([2]; iv bolus 0.25 mg/kg) of the same compound?
**A.** 7.49 ± 0.75 ng/mL

**Q.** What about the Clast ([2]; iv bolus 1.00 mg/kg) of the same compound?
**A.** 42.03 ± 4.42 ng/mL

**Q.** What about the “Cmax and AUC0-8h relation to dose” value ([2]; iv bolus, whole studied range 0.07–1.00 mg/kg) of the same compound?
**A.** linearly related to the dose
